Reference: ChEMBL document CHEMBL4680185, “Discovery of novel cyclin-dependent kinase (CDK) and histone deacetylase (HDAC) dual inhibitors with potent in vitro and in vivo anticancer activity” (Eur J Med Chem, 2020)
Calls of active or inactive are those of the source. No cut-off for these calls is given here.

Tests used:
[1] = tested on: A-375; test: Cell cycle arrest in human A375 cells assessed as increase in number of cells at G2/M phase at 2 uM incubated for 24 hrs by propidium iodide staining based flow cytometry (reference value: 1.13%); type: functional
[2] = tested on: NCI-H460; test: Antimigratory activity against human H460 cells assessed as inhibition of cell migration at 0.5 uM measured after 48 hrs by cell scratch assay; type: functional, cell-based
[3] = target: Cyclin-dependent kinase 2 (Homo sapiens) (UniProt P24941); test: Inhibition of CDK2 in human A375 cells at 1 uM measured after 12 hr by DAPI staining based immunofluorescence analysis; type: cell-based; settings: A-375
[4] = target: T1, Histone deacetylase 8 (Homo sapiens, UniProt Q9BY41); test: Inhibition of human recombinant HDAC8 preincubated for 10 mins followed by substrate addition measured after 30 mins by fluorescent plate reader analysis
T1 sequence (Q9BY41 whole entry): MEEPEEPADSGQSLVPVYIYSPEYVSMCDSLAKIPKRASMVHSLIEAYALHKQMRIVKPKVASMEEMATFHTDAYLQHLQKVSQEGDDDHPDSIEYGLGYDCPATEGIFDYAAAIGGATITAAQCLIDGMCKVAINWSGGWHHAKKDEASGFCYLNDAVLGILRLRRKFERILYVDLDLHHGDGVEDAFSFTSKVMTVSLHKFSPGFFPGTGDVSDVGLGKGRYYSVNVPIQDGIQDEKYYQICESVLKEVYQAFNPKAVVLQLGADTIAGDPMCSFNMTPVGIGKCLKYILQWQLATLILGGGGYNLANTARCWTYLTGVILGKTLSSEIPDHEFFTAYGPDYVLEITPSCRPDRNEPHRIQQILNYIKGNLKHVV

[5] = AUC (0 to infinity) in ICR mouse at 20 mg/kg, ip by LC-MS/MS analysis; type: ADME, organism-based; parameters: time infinity, route intraperitoneal, dose 20 mg/kg; settings: in vivo
[6] = tested on: NCI-H460; test: cells; type: functional, cell-based; settings: Homo sapiens, NCI-H460, 72 h
Description: Antiproliferative activity against human H460 cells assessed as inhibition of cell growth incubated for 72 hrs by CCK-8 assay

[7] = Toxicity in BALB/C nude mouse xenografted with HCT116 cells assessed as effect on body weight at 12.5 to 25 mg/kg, ip once daily for 21 days; type: organism-based; settings: in vivo, 504 h, dose 12.5-25 mg/kg, time 21 day
[8] = tested on: HCT-116; test: cells; type: functional, cell-based; settings: Homo sapiens, HCT-116, 72 h
Description: Antiproliferative activity against human HCT116 cells assessed as inhibition of cell growth incubated for 72 hrs by CCK-8 assay

[9] = tested on: HCT-116; test: Cell cycle arrest in human HCT116 cells assessed as increase in number of cells at G2/M phase at 0.5 to 2 uM incubated for 24 hrs by propidium iodide staining based flow cytometry; type: functional; settings: dose 0.5-2 µM
[10] = tested on: HCT-116; test: cells; type: functional; settings: Homo sapiens, time 72 hrs, read-out: GI
[11] = tested on: NCI-H460; test: Induction of apoptosis in human H460 cells assessed as number of apoptotic cells at 0.5 to 2 uM incubated for 48 hrs by annexin V-FITC/PI based flow cytometric analysis; type: functional, cell-based; settings: dose 0.5-2 µM
[12] = Tmax in ICR mouse at 20 mg/kg, ip by LC-MS/MS analysis; type: ADME, organism-based; settings: in vivo
[13] = tested on: HeLa; test: Cell cycle arrest in human HeLa cells assessed as increase in number of cells at G2/M phase at 0.5 to 2 uM incubated for 24 hrs by propidium iodide staining based flow cytometry; type: functional; settings: dose 0.5-2 µM
[14] = tested on: HCT-116; test: Antitumor activity against human HCT116 cells xenografted in BALB/C nude mouse assessed reduction in tumor growth at 25 mg/kg, ip once daily for 21 days relative to control; type: functional; settings: HCT-116, ip, 504 h, time 21 day, read-out: TGI
[15] = MRT (0 to infinity) in ICR mouse at 20 mg/kg, ip by LC-MS/MS analysis; type: ADME, organism-based; settings: in vivo
[16] = tested on: A-375; test: Cell cycle arrest in human A375 cells assessed as increase in number of cells at G2/M phase at 0.5 to 2 uM incubated for 24 hrs by propidium iodide staining based flow cytometry; type: functional; settings: dose 0.5-2 µM
[17] = tested on: HCT-116; test: Antitumor activity against human HCT116 cells xenografted in BALB/C nude mouse assessed reduction in tumor growth at 12.5 mg/kg, ip once daily for 21 days relative to control; type: functional; settings: HCT-116, ip, 504 h, time 21 day, read-out: TGI
[18] = tested on: HeLa; test: cells; type: functional, cell-based; settings: Homo sapiens, 72 h
Description: Antiproliferative activity against human Hela cells assessed as inhibition of cell growth incubated for 72 hrs by CCK-8 assay

[19] = tested on: HCT-116; test: cells; type: functional; settings: Homo sapiens, time 72 hrs, read-out: GI; remark: listed apart in the source
[20] = target: CDK6/cyclin D3 (Homo sapiens, UniProt Q00534); test: Inhibition of recombinant human full length CDK6/cyclin D3 incubated for 10 mins by ADP-Glo reagent assay; type: protein-complex assay
Sequence of CDK6/cyclin D3 (P30281 whole entry): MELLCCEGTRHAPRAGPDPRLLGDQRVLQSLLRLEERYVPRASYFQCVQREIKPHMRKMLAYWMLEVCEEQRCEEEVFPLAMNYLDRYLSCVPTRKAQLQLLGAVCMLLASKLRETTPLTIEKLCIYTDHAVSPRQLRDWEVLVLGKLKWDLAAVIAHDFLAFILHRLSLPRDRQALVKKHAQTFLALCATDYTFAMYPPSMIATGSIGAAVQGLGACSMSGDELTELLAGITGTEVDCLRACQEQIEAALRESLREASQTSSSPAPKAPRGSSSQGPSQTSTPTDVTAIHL
Sequence of CDK6/cyclin D3 (Q00534 whole entry): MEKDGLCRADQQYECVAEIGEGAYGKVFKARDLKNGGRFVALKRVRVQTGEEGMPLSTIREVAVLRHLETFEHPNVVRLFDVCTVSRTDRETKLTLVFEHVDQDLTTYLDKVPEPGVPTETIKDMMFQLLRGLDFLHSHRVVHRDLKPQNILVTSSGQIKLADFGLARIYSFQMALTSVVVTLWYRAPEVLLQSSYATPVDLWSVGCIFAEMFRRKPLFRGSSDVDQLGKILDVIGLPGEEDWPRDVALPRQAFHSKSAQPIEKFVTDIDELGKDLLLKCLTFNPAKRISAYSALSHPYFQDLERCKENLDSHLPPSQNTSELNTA

Compound	Activity [1] [%]	inhibition [2]	inhibition [3]	IC50 [4] [nM]	AUC [5] [ng·h/mL]	IC50 [6] [nM]	Activity [7]	IC50 [8] [nM]	Activity [9]	inhibition of growth at 8 µM [10] [%]	Activity [11]	Tmax [12] [h]	Activity [13]	inhibition in vivo at 25 mg/kg [14] [%]	MRT inf [15] [h]	Activity [16]	inhibition in vivo at 12.5 mg/kg [17] [%]	IC50 [18] [nM]	inhibition of growth at 2 µM [19] [%]	IC50 [20] [nM]
Nc1ccccc1NC(=O)c1ccc(CNC(=O)c2n[nH]cc2NC(=O)c2c(Cl)cccc2Cl)cc1	57.74	Active	Active	> 1000	30700	4190	Non-Toxic	710	Active	73.8	Active	2	Active	51	3.31	Active	37	1830	73.8	> 1000
Nc1ccccc1NC(=O)Cc1ccc(NC(=O)c2n[nH]cc2NC(=O)c2c(Cl)cccc2Cl)cc1	66.48	Active	Active	> 1000	7200	2630	–	1450	Active	78	Active	1	Active	–	2.36	Active	–	3150	72.9	> 1000
